Assay results published in patent publication US8119563B2, “N-substituted azacycles” (FMC Corporation, priority 2003, dated 2012).

Tested on: tobacco budworm (Heliothis virescens [Fabricius])
Assay: surface-treated diet test, insecticidal activity against tobacco budworm
Format: in vivo
Details: 0.25 millimoles of candidate insecticide on the surface of the diet, second instar larvae, five-day exposure; for Percent Mortality: compared to total number of insects infested; for Percent Growth Inhibition: inhibition of insect weight relative to untreated controls
Experimental: Candidate insecticides were evaluated for activity against the tobacco budworm (Heliothis virescens [Fabricius]) in a surface-treated diet test.
In this test one mL of molten (65-70° C.) wheat germ-based artificial diet was pipetted into each well of a four by six (24 well) multi-well plate (ID# 430345-15.5 mm dia.×17.6 mm deep; Corning Costar Corp., One Alewife Center, Cambridge, Mass. 02140). The diet was allowed to cool to ambient temperature before treatment with candidate insecticide.
For a determination of insecticidal activity, solutions of the candidate insecticides were prepared for testing using a Packard 204DT Multiprobe® Robotic System (Packard Instrument Company, 800 Research Parkway, Meriden, Conn. 06450), in which the robot first diluted a standard 50 millimolar DMSO solution of candidate insecticide with a 1:1 water/acetone solution (V/V) in a ratio of 1:7 stock solution to water/acetone. The robot subsequently pipetted 40 microliters of the so-prepared solution onto the surface of the diet in each of three wells in the 24 multi-well plate. The process was repeated with solutions of seven other candidate insecticides. Once treated, the contents of the multi-well plate were allowed to dry, leaving 0.25 millimoles of candidate insecticide on the surface of the diet, or a concentration of 0.25 millimolar. Appropriate untreated controls containing only DMSO on the diet surface were also included in this test.
For evaluations of the insecticidal activity of a candidate insecticide at varying rates of application, the test was established as described above using sub-multiples of the standard 50 millimolar DMSO solution of candidate insecticide. For example, the standard 50 millimolar solution was diluted by the robot with DMSO to give 5, 0.5, 0.05, 0.005, 0.0005 millimolar, or more dilute solutions of the candidate insecticide. In these evaluations there were six replicates of each rate of application placed on the surface of the diet in the 24 multi-well plate, for a total of four rates of application of candidate insecticide in each plate.
In each well of the test plate was placed one second instar tobacco budworm larvea, each weighing approximately five milligrams. After the larvae were placed in each well, the plate was sealed with clear polyfilm adhesive tape. The tape over each well was perforated to ensure an adequate air supply. The plates were then held in a growth chamber at 25° C. and 60% relative humidity for five days (light 14 hours/day).
After the five-day exposure period insecticidal activity for each rate of application of candidate insecticide was assessed as percent inhibition of insect weight relative to the weight of insects from untreated controls, and percent mortality when compared to the total number of insects infested.
The test compounds of formula I are identified by numbers that correspond to those in Table 1.

Row | SMILES | Percent Mortality [%] | Percent Growth Inhibition [%]
1 | OC1(C(c2ccccc2)c2ccc(OC(F)(F)F)cc2)CCN(Cc2ccc(Oc3ccccn3)cc2)CC1 (racemic) [Compound 288] | 100 | 100
2 | CCn1nnc(-c2ccc(C[N+]3([O-])CCC(O)(C(c4ccc(C(F)(F)F)cc4)c4ccc(C(F)(F)F)cc4)CC3)cc2)n1 (stereo not shown) [Compound 113] | 100 | 100
3 | Cc1cccnc1Oc1ccc(CN2CCC(O)(C(c3ccc(OC(F)(F)F)cc3)c3ccc(OC(F)(F)F)cc3)CC2)cc1 [Compound 271] | 100 | 100
4 | O=C([O-])CCCC(=O)O.OC1(C(c2ccc(OC(F)(F)F)cc2)c2ccc(OC(F)(F)F)cc2)CC[N+](O)(Cc2ccc(Oc3ccccn3)cc2)CC1 (stereo not shown) [Compound 512] | 100 | 100
5 | CCOC(C)C(=O)[O-].OC1(C(c2ccc(OC(F)(F)F)cc2)c2ccc(OC(F)(F)F)cc2)CC[N+](O)(Cc2ccc(Oc3ccccn3)cc2)CC1 (stereo not shown) [Compound 503] | 100 | 100
6 | [O-][N+]1(Cc2ccc(OCC3CC3)cc2)CCC(O)(C(c2ccc(OC(F)(F)F)cc2)c2ccc(OC(F)(F)F)cc2)CC1 (stereo not shown) [Compound 392] | 100 | 100
7 | [O-][N+]1(CCc2ccc(Cl)cc2)CCC(O)(C(c2ccc(OC(F)(F)F)cc2)c2ccc(OC(F)(F)F)cc2)CC1 (stereo not shown) [Compound 479] | 100 | 100
8 | CC(C)OC(=O)c1ccc(CN2CCC(O)(C(c3ccc(C(F)(F)F)cc3)c3ccc(C(F)(F)F)cc3)CC2)cc1 [Compound 330] | 100 | 100
9 | CCCCC(CC)C(=O)[O-].CCON=Cc1ccc(C[N+]2(O)CCC(O)(C(c3ccc(OC(F)(F)F)cc3)c3ccc(OC(F)(F)F)cc3)CC2)cc1 (stereo not shown) [Compound 486] | 100 | 100
10 | OC1(C(c2ccc(OC(F)(F)F)cc2)c2ccc(OC(F)(F)F)cc2)CCN(Cc2ccc(Oc3ncccc3C(F)(F)F)cc2)CC1 [Compound 30] | 100 | 100
11 | NC(=O)CON=Cc1ccc(C[N+]2(O)CCC(O)(C(c3ccc(OC(F)(F)F)cc3)c3ccc(OC(F)(F)F)cc3)CC2)cc1.O=C(O)CC(O)(CC(=O)O)C(=O)[O-] (stereo not shown) [Compound 489] | 100 | 100
12 | CCCNC(=O)Oc1ccc(CN2CCC(O)(C(c3ccc(OC(F)(F)F)cc3)c3ccc(OC(F)(F)F)cc3)CC2)cc1 [Compound 300] | 100 | 100
13 | COc1cc(C[N+]2([O-])CCC(O)(C(c3ccc(OC(F)(F)F)cc3)c3ccc(OC(F)(F)F)cc3)CC2)ccc1Oc1ccccn1 (stereo not shown) [Compound 465] | 100 | 100
14 | Cc1ccc(Oc2ccc(CN3CCC(O)(C(c4ccc(OC(F)(F)F)cc4)c4ccc(OC(F)(F)F)cc4)CC3)cc2)nc1 [Compound 272] | 100 | 100
15 | COCCOCCON=Cc1ccc(C[N+]2([O-])CCC(O)(C(c3ccc(OC(F)(F)F)cc3)c3ccc(OC(F)(F)F)cc3)CC2)cc1 (stereo not shown) [Compound 336] | 100 | 100
16 | CCn1nnc(-c2ccc(CN3CCC(O)(C(c4ccc(OC(F)(F)F)cc4)c4ccc(OC(F)(F)F)cc4)CC3)cc2)n1 [Compound 25] | 100 | 100
17 | Cc1cccc(Oc2ccc(CN3CCC(O)(C(c4ccc(OC(F)(F)F)cc4)c4ccc(OC(F)(F)F)cc4)CC3)cc2)n1 [Compound 276] | 100 | 100
18 | CCON=Cc1ccc(C[N+]2(O)CCC(O)(C(c3ccc(OC(F)(F)F)cc3)c3ccc(OC(F)(F)F)cc3)CC2)cc1.O=S(=O)([O-])CCCO (stereo not shown) [Compound 483] | 100 | 100
19 | N#CCON=Cc1ccc(C[N+]2([O-])CCC(O)(C(c3ccc(OC(F)(F)F)cc3)c3ccc(OC(F)(F)F)cc3)CC2)cc1 (stereo not shown) [Compound 353] | 100 | 100

Row | SMILES | Percent Mortality [%] | Percent Growth Inhibition [%]
20 | OCC1(C(c2ccc(C(F)(F)F)cc2)c2ccc(C(F)(F)F)cc2)CCN(Cc2ccc(Oc3ncccn3)cc2)CC1 [Compound 448] | 0 | 96
21 | OC1(C(c2ccc(OC(F)(F)F)cc2)c2ccc(C3OCCO3)cc2)CCN(Cc2ccc(Oc3ccccn3)cc2)CC1 (racemic) [Compound 295] | 100 | 100
22 | OC1(C(c2ccc(OC(F)(F)F)cc2)c2ccc(Cl)cc2F)CCN(Cc2ccc(Oc3ccccn3)cc2)CC1 (stereo not shown) [Compound 445] | 100 | 100
23 | CCCCCCCC/C=C/CCCCCCCC(=O)[O-].OC1(C(c2ccc(OC(F)(F)F)cc2)c2ccc(OC(F)(F)F)cc2)CC[N+](O)(Cc2ccc(Oc3ccccn3)cc2)CC1 (stereo not shown) [Compound 513] | 100 | 100
24 | CCn1nnc(-c2ccc(C[N+]3([O-])CCC(O)(C(c4ccc(OC(F)(F)F)cc4)c4ccc(OC(F)(F)F)cc4)CC3)cc2)n1 (stereo not shown) [Compound 114] | 100 | 100
25 | [O-][N+]1(Cc2ccc(Oc3ccccn3)cc2)CCC(O)(C(c2ccc(OC(F)(F)F)cc2)c2cc(Cl)cc(Cl)c2)CC1 (stereo not shown) [Compound 457] | 100 | 100
26 | CCCOC(=O)Nc1ccc(C[N+]2([O-])CCC(O)(C(c3ccc(OC(F)(F)F)cc3)c3ccc(OC(F)(F)F)cc3)CC2)cc1 (stereo not shown) [Compound 387] | 100 | 100
27 | CCOC(=O)COc1ccc(CN2CCC(O)(C(c3ccc(C(F)(F)F)cc3)c3ccc(C(F)(F)F)cc3)CC2)cc1 [Compound 291] | 17 | 100
28 | N#Cc1cccnc1Oc1ccc(CN2CCC(O)(C(c3ccc(OC(F)(F)F)cc3)c3ccc(OC(F)(F)F)cc3)CC2)cc1 [Compound 281] | 100 | 100
29 | O=Cc1ccc(CN2CCC(O)(C(O)(c3ccc(OC(F)(F)F)cc3)c3ccc(OC(F)(F)F)cc3)CC2)cc1 [Compound 418] | 0 | 83
30 | CCCCC(CC)C(=O)[O-].OC1(C(c2ccc(OC(F)(F)F)cc2)c2ccc(OC(F)(F)F)cc2)CC[N+](O)(Cc2ccc(Oc3ccc(Cl)nn3)cc2)CC1 (stereo not shown) [Compound 485] | 100 | 100
31 | [O-][N+]1(Cc2ccc(Oc3ccc(Cl)nn3)cc2)CCC(O)(C(O)(c2ccc(OC(F)(F)F)cc2)c2ccc(OC(F)(F)F)cc2)CC1 (stereo not shown) [Compound 425] | 100 | 100
32 | CC(C)OC(=O)Nc1ccc(CN2CCC(O)(C(c3ccc(OC(F)(F)F)cc3)c3ccc(OC(F)(F)F)cc3)CC2)cc1 [Compound 29] | 100 | 100
33 | O=S(=O)([O-])C(F)(F)C(F)(F)C(F)(F)C(F)(F)C(F)(F)C(F)(F)C(F)(F)C(F)(F)C(F)(F)F.OC1(C(c2ccc(C(F)(F)F)cc2)c2ccc(C(F)(F)F)cc2)CC[N+](O)(Cc2ccc(Oc3ccc(Cl)nn3)cc2)CC1 (stereo not shown) [Compound 520] | 100 | 100
34 | O=C([O-])CCCCC(=O)O.OC1(C(c2ccc(OC(F)(F)F)cc2)c2ccc(OC(F)(F)F)cc2)CC[N+](O)(Cc2ccc(Oc3ccccn3)cc2)CC1 (stereo not shown) [Compound 516] | 100 | 100
35 | O=C(O)CC(O)(CC(=O)O)C(=O)[O-].OC1(C(c2ccc(C(F)(F)F)cc2)c2ccc(C(F)(F)F)cc2)CC[N+](O)(Cc2ccc(Oc3ccc(Cl)nn3)cc2)CC1 (stereo not shown) [Compound 488] | 100 | 100
36 | [O-][N+]1(Cc2ccc(Oc3ncccn3)cc2)CCC(O)(C(c2ccc(Cl)cc2)c2ccc(OC(F)(F)F)cc2)CC1 (stereo not shown) [Compound 402] | 100 | 100
37 | OC1(C(c2ccc(OC(F)(F)F)cc2)c2ccc(OC(F)(F)F)cc2)CCN(Cc2ccc(-c3ccccn3)cc2)CC1 [Compound 309] | 100 | 100
38 | OC1(C(c2ccc(OC(F)(F)F)cc2)c2ccc(OC(F)(F)F)cc2)CCN(CCOc2ccc(Br)cc2)CC1 [Compound 477] | 100 | 100
